Assay results as given in PMC7589200, “Identification of Putative Non-Substrate-Based XT-I Inhibitors by Natural Product Library Screening” (Biomolecules, 2020).
Where a name gives a salt, the structure may show the parent alone.

The molecules below were run against T1, recombinant human XT-I (Homo sapiens, UniProt Q86Y38) (assay: NP library inhibitor screening, UPLC/ESI-MS/MS XT-I assay). Details: Table 2; 50 μM inhibitor; relative to control (DMSO = 100%); technical duplicates.
T1 sequence (Q86Y38 252-959 limits assumed): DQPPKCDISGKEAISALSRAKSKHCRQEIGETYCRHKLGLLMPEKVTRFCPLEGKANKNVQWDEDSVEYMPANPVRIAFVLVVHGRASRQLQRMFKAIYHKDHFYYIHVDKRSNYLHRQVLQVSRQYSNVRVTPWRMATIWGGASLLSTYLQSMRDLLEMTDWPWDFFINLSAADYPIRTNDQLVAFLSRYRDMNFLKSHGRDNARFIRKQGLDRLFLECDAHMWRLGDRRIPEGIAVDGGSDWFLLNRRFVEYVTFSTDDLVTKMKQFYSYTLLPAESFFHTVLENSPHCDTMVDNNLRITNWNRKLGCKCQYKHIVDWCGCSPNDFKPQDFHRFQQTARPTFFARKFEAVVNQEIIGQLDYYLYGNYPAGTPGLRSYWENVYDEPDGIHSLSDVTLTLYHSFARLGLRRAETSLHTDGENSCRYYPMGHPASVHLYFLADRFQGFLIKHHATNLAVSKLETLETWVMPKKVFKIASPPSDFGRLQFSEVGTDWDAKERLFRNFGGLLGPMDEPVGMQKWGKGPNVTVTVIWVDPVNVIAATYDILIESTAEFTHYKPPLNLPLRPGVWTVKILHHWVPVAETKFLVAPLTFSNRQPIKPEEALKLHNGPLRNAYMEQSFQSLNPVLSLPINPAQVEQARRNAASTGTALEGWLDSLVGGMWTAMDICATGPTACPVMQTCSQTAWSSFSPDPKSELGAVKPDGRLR
Format: biochemical

Molecule | XT-I Activity [%]
Oxytetracycline (Terramycin) [Compound 74] | 17%

Same assay, conditions: Table S1; 50 μM inhibitor; relative to negative control containing DMSO; technical duplicates

Molecule | remaining activity at 50 µM | XT-I Activity [%]
CC1=C(/C=C/C(C)=C/C=C/C(C)=C\C(=O)O)C(C)(C)CCC1 [Compound 15, Isotretinoin] | 86% | 
CC(=O)O[C@H]1C(=O)[C@@]2(C)[C@H]([C@H](OC(=O)c3ccccc3)[C@]3(O)C[C@H](OC(=O)[C@H](O)[C@@H](NC(=O)c4ccccc4)c4ccccc4)C(C)=C1C3(C)C)[C@]1(OC(C)=O)CO[C@@H]1C[C@@H]2O [Compound 34, Paclitaxel] | 79% | 
CC(=O)[C@H]1CC[C@H]2[C@@H]3CC=C4C[C@@H](O)CC[C@]4(C)[C@H]3CC[C@]12C [Compound 11, Pregnenolone] |  | 95%
CO[C@H]1/C=C/O[C@@]2(C)Oc3c(C)c(O)c4c(O)c(c(/C=N/N5CCN(C)CC5)c(O)c4c3C2=O)NC(=O)/C(C)=C\C=C\[C@H](C)[C@H](O)[C@@H](C)[C@@H](O)[C@@H](C)[C@H](OC(C)=O)[C@@H]1C [Compound 41, Rifampin] | 77% | 
CC1=C(/C=C/C(C)=C/C=C/C(C)=C/C(=O)O)C(C)(C)CCC1 [Compound 72, Tretinoin] | 84% | 
Ginkgolide B [Compound 69] |  | 100%
CCCSc1ccc2nc(NC(=O)OC)[nH]c2c1 [Compound 28, Albendazole] | 77% | 
CCCCCCCCCC(=O)N[C@@H](Cc1c[nH]c2ccccc12)C(=O)N[C@H](CC(N)=O)C(=O)N[C@@H](CC(=O)O)C(=O)N[C@@H]1C(=O)NCC(=O)N[C@@H](CCCN)C(=O)N[C@@H](CC(=O)O)C(=O)N[C@H](C)C(=O)N[C@@H](CC(=O)O)C(=O)NCC(=O)N[C@H](CO)C(=O)N[C@@H]([C@H](C)CC(=O)O)C(=O)N[C@@H](CC(=O)c2ccccc2N)C(=O)O[C@@H]1C [Compound 80, Daptomycin] | 86% | 
C[C@H]1O[C@H](O[C@H]2[C@H](O)[C@@H](O)[C@@H](O[C@H]3[C@H](O)[C@@H](O)C(O)O[C@@H]3CO)O[C@@H]2CO)[C@H](O)[C@@H](O)[C@@H]1N[C@H]1C=C(CO)[C@@H](O)[C@H](O)[C@H]1O (stereo partly drawn) [Compound 46, Acarbose] | 92% | 
C=C1C(=O)O[C@@H]2/C=C(\C)CC/C=C(\C)CC[C@@H]12 [Compound 14, Costunolide] | 121% | 
C[C@@H]1C/C=C/C=C/C=C/C=C/[C@H](O[C@@H]2O[C@H](C)[C@@H](O)[C@H](N)[C@@H]2O)C[C@@H]2O[C@](O)(C[C@@H](O)C[C@H]3O[C@@H]3/C=C/C(=O)O1)C[C@H](O)[C@H]2C(=O)O [Compound 27, Natamycin] | 95% | 
OC[C@H]1O[C@@H](O[C@@H]2[C@@H](CO)OC(O)(CO)[C@H]2O)[C@H](O)[C@@H](O)[C@H]1O (mixture of isomers) [Compound 16, Lactulose] | 122% | 
C[C@@H]1CN(c2c(F)c(N)c3c(=O)c(C(=O)O)cn(C4CC4)c3c2F)C[C@H](C)N1 [Compound 43, Sparfloxacin] | 89% | 
CO[C@H]1/C=C/O[C@@]2(C)Oc3c(C)c(O)c4c(O)c(c5c(nc6cc(C)ccn65)c4c3C2=O)NC(=O)/C(C)=C\C=C\[C@H](C)[C@H](O)[C@@H](C)[C@@H](O)[C@@H](C)[C@H](OC(C)=O)[C@@H]1C [Compound 20, Rifaximin] | 83% | 
COc1cccc2c1C(=O)c1c(O)c3c(c(O)c1C2=O)C[C@@](O)(C(=O)CO)C[C@@H]3O[C@H]1C[C@H](N)[C@@H](O)[C@H](C)O1 [Compound 2, Epirubicin HCl] | 95% | 
C[C@@H]1[C@H](O)[C@@H](C)/C=C/C=C/CC/C=C/C=C/C=C/C=C/[C@H](O[C@H]2O[C@@H](C)[C@H](O)[C@@H](N)[C@H]2O)C[C@@H]2O[C@](O)(C[C@@H](O)[C@H](O)CC[C@@H](O)C[C@@H](O)C[C@@H](O)CC(=O)O[C@H]1C)C[C@H](O)[C@H]2C(=O)O [Compound 44, Nystatin (Fungicidin)] |  | 52%
Oxytetracycline (Terramycin) [Compound 74] |  | 17%
C[C@H](CCC(=O)O)[C@H]1CC[C@H]2[C@@H]3[C@@H](O)C[C@@H]4C[C@H](O)CC[C@]4(C)[C@H]3CC[C@]12C [Compound 39, Ursodiol] | 98% | 
COc1cc([C@@H]2c3cc4c(cc3[C@@H](O[C@@H]3O[C@@H]5CO[C@@H](C)O[C@H]5[C@H](O)[C@H]3O)[C@H]3COC(=O)[C@H]23)OCO4)cc(OC)c1O [Compound 13, Etoposide] | 114% | 
C[C@@H]1CC[C@H]2[C@@H](C)C(=O)O[C@@H]3O[C@@]4(C)CC[C@@H]1[C@]32OO4 [Compound 57, Artemisinin] | 93% | 
C[C@@H]1C(=O)O[C@H]2C[C@@]34[C@H]5C[C@@H](C(C)(C)C)[C@]36[C@@H](OC(=O)[C@@H]6O)O[C@@]4(C(=O)O5)[C@]21O [Compound 95, Ginkgolide A] | 150% | 
Cn1c(=O)c2[nH]cnc2n(C)c1=O [Compound 18, Aminophylline] | 122% | 
CC(=O)O[C@@]12CO[C@@H]1C[C@H](O)[C@@]1(C)C(=O)[C@H](O)C3=C(C)[C@@H](OC(=O)[C@H](O)[C@@H](NC(=O)OC(C)(C)C)c4ccccc4)C[C@@](O)([C@@H](OC(=O)c4ccccc4)[C@H]21)C3(C)C [Compound 23, Docetaxel] | 104% | 

Now from value to molecule:

remaining activity at 50 µM | XT-I Activity [%] | Molecule
122% |  | C[C@]12CCC(=O)C=C1CC[C@@H]1[C@@H]2[C@@H](O)C[C@@]2(C)[C@H]1CC[C@]2(O)C(=O)CO [Compound 62, Hydrocortisone]
115% |  | O=c1c(-c2ccc(O)cc2)coc2cc(O)ccc12 [Compound 10, Daidzein]
103% |  | Nc1ncnc2c1ncn2[C@@H]1O[C@H](CO)[C@@H](O)[C@@H]1O [Compound 9, Vidarabine]
136% |  | Clc1ccc(C(Cn2ccnc2)OCc2ccsc2Cl)c(Cl)c1 (stereo not drawn) [Compound 87, Tioconazole]
 | 74% | CC(C)[C@H](N)C(=O)OCCOCn1cnc2c(=O)nc(N)[nH]c21.Cl [Compound 32, Valaciclovir HCl]
103% |  | Nc1ncnc2c1ncn2[C@@H]1O[C@H](CO)[C@@H](O)[C@H]1O [Compound 61, Adenosine]
95% |  | Cc1noc(NS(=O)(=O)c2ccc(N)cc2)c1C [Compound 33, Sulfisoxazole]
111% |  | Cc1nnc(NS(=O)(=O)c2ccc(N)cc2)s1 [Compound 89, Sulfamethizole]
128% |  | C[C@]12CC[C@@H]3c4ccc(O)cc4CC[C@H]3[C@@H]1CC[C@@H]2O [Compound 84, Estradiol]
108% |  | Nc1ccc(S(=O)(=O)Nc2ncccn2)cc1 [Compound 63, Sulfadiazine]
83% |  | CCN1CCN(C(=O)N[C@@H](C(=O)N[C@@H]2C(=O)N3C(C(=O)O)=C(CSc4nnnn4C)CS[C@H]23)c2ccc(O)cc2)C(=O)C1=O [Compound 71, Cefoperazone]
87% |  | O=C(N[C@H](CO)[C@H](O)c1ccc([N+](=O)[O-])cc1)C(Cl)Cl [Compound 40, Chloramphenicol]
 | 114% | COc1cc2c(cc1O)CC[C@@H]1[C@@H]2CC[C@]2(C)[C@@H](O)CC[C@@H]12 [Compound 24, 2-Methoxyestradiol (2-MeOE2)]
71% |  | Nc1nc2c(ncn2COCCO)c(=O)[nH]1 [Compound 42, Aciclovir]
130% |  | CCc1cc(C(N)=S)ccn1 [Compound 85, Ethionamide]
75% |  | OC(Cn1cncn1)(Cn1cncn1)c1ccc(F)cc1F [Compound 36, Fluconazole]
98% |  | COc1c(N2CCNC(C)C2)c(F)cc2c(=O)c(C(=O)O)cn(C3CC3)c12 (stereo not drawn) [Compound 47, Gatifloxacin]
108% |  | CCn1cc(C(=O)O)c(=O)c2cc(F)c(N3CCN(C)CC3)cc21 [Compound 21, Pefloxacin Mesylate]
109% |  | Cc1ncc([N+](=O)[O-])n1CCO [Compound 76, Metronidazole]
126% |  | COc1cnc(NS(=O)(=O)c2ccc(N)cc2)nc1 [Compound 82, Sulfameter]
121% |  | Oc1c(Cl)cc(Cl)c2cccnc12 [Compound 64, Chloroxine]
70% |  | CCC(C)(C)c1ccc(CC(C)CN2C[C@@H](C)O[C@@H](C)C2)cc1 (stereo partly drawn) [Compound 29, Amorolfine HCl]
 | 142% | Cl.N=c1ccn2c(n1)O[C@H]1[C@H](O)[C@@H](CO)O[C@H]12 [Compound 92, Cyclocytidine HCl]
121% |  | Cc1cc(NS(=O)(=O)c2ccc(N)cc2)no1 [Compound 22, Sulfamethoxazole]
 | 146% | Cl.Nc1ncnc2nc[nH]c12 [Compound 93, Adenine HCl]
 | 132% | COc1cc(NS(=O)(=O)c2ccc(N)cc2)nc(OC)n1 [Compound 91, Sulphadimethoxine]
59% |  | CN(C)c1cc(NC(=O)CNC(C)(C)C)c(O)c2c1C[C@H]1C[C@H]3[C@H](N(C)C)C(O)=C(C(N)=O)C(=O)[C@@]3(O)C(O)=C1C2=O [Compound 48, Tigecycline]
